{
  "source": "patent US8962674B2",
  "about": "(Tokyo Institute of Technology, priority 2006, dated 2015)",
  "data": [
    {"units": {"melting point": "°C"}, "values": [
      {"molecule": "COc1ccc(OC)c(/C=C/C(=O)CC(=O)/C=C/c2ccc(O)cc2)c1", "note": "[CU075, (1E,6E)-1-(2,5-dimethoxyphenyl)-7-(4-hydroxyphenyl)hepta-1,6-diene-3,5-dione]", "melting point": "70 to 74"},
      {"molecule": "COc1cc(/C=C/C(=O)CC(=O)/C=C/c2c(OC)cccc2OC)ccc1O", "note": "[CU103, (1E,6E)-1-(2,6-dimethoxyphenyl)-7-(4-hydroxy-3-methoxyphenyl)hepta-1,6-diene-3,5-dione]", "melting point": "136 to 139"},
      {"molecule": "COc1ccc(O)c(/C=C/C(=O)CC(=O)/C=C/c2ccc(O)cc2)c1", "note": "[CU253, (1E,6E)-1-(2-hydroxy-5-methoxyphenyl)-7-(4-hydroxyphenyl)hepta-1,6-diene-3,5-dione]", "melting point": "167 to 170"},
      {"molecule": "O=C(/C=C/c1ccc(O)cc1)CC(=O)/C=C/c1ccccc1N1CCN(CCO)CC1", "note": "[CU501, (1E,6E)-1-{2-[4-(2-hydroxyethyl)piperazin-1-yl]phenyl}-7-(4-hydroxyphenyl)hepta-1,6-diene-3,5-dione]", "melting point": "102 to 110"},
      {"molecule": "COc1ccc(/C=C/C(=O)CC(=O)/C=C/c2ccc(O)c([N+](=O)[O-])c2)cc1O", "note": "[CU041, (1E,6E)-1-(3-hydroxy-4-methoxyphenyl)-7-(4-hydroxy-3-nitrophenyl)hepta-1,6-diene-3,5-dione]", "melting point": "220 to 224"},
      {"molecule": "CN(C)c1ccc(/C=C/C(=O)CC(=O)CCc2ccc(O)cc2)c(Cl)c1", "note": "[CU524, (E)-1-(2-chloro-4-dimethylaminophenyl)-7-(4-hydroxyphenyl)hept-1-ene-3,5-dione]", "melting point": "120 to 129"},
      {"molecule": "COc1cc(/C=C/C(=O)CC(=O)/C=C/c2cc(Cl)ccc2Cl)ccc1O", "note": "[CU184, (1E,6E)-1-(2,5-dichlorophenyl)-7-(4-hydroxy-3-methoxyphenyl)hepta-1,6-diene-3,5-dione]", "melting point": "142 to 147"},
      {"molecule": "O=C(/C=C/c1ccc(O)cc1)CC(=O)/C=C/c1ccccc1-c1ccc2ccccc2c1", "note": "[CU529, (1E,6E)-1-(4-hydroxyphenyl)-7-[2-(naphthalen-2-yl)phenyl]hepta-1,6-diene-3,5-dione]", "melting point": "105 to 114"},
      {"molecule": "Cn1c(/C=C/C(=O)CC(=O)/C=C/c2cc3ccccc3n2C)cc2ccccc21", "note": "[CU409, (1E,6E)-1,7-bis(1-methyl-1H-indol-2-yl)hepta-1,6-diene-3,5-dione]", "melting point": "189 to 196"},
      {"molecule": "CCN(CC)c1ccc(/C=C/C(=O)CC(=O)/C=C/c2ccc(O)cc2)c(OCc2ccc(Cl)cc2Cl)c1", "note": "[CU451, (1E,6E)-1-[2-(2,4-dichlorobenzyloxy)-4-diethylaminophenyl]-7-(4-hydroxyphenyl)hepta-1,6-diene-3,5-dione]", "melting point": "73 to 80"},
      {"molecule": "O=C(/C=C/c1ccc(O)cc1)CC(=O)/C=C/c1cc(O)ccc1-c1cccc2ccccc12", "note": "[CU538, (1E,6E)-1-[5-hydroxy-2-(naphthalen-1-yl)phenyl]-7-(4-hydroxyphenyl)hepta-1,6-diene-3,5-dione]", "melting point": "215 to 221"},
      {"molecule": "COc1ccc(/C=C/C(=O)CC(=O)/C=C/c2ccc(OCCCN(C)C)cc2)cc1O", "note": "[CU241, (1E,6E)-1-[4-(3-dimethylaminopropoxy)phenyl]-7-(3-hydroxy-4-methoxyphenyl)hepta-1,6-diene-3,5-dione]", "melting point": "183 to 186"},
      {"molecule": "COc1ccc(/C=C/C(=O)CC(=O)/C=C/c2ccc3cc[nH]c3c2)cc1O", "note": "[CU191, (1E,6E)-1-(3-hydroxy-4-methoxyphenyl)-7-(1H-indol-6-yl)hepta-1,6-diene-3,5-dione]", "melting point": "197 to 202"},
      {"molecule": "O=C(/C=C/c1ccc2cc[nH]c2c1)CC(=O)/C=C/c1ccc2cc[nH]c2c1", "note": "[CU391, (1E,6E)-1,7-bis(1H-indol-6-yl)hepta-1,6-diene-3,5-dione]", "melting point": "247 to 255"},
      {"molecule": "COC(=O)c1ccccc1/C=C/C(=O)CC(=O)/C=C/c1ccc(O)cc1", "note": "[CU478, (1E,6E)-1-(4-hydroxyphenyl)-7-[2-(methoxycarbonyl)phenyl]hepta-1,6-diene-3,5-dione]", "melting point": "145 to 150"},
      {"molecule": "CN(C)c1ccc(/C=C/C(=O)CC(=O)/C=C/c2ccc(O)cc2)cc1", "note": "[CU207, (1E,6E)-1-(4-dimethylaminophenyl)-7-(4-hydroxyphenyl)hepta-1,6-diene-3,5-dione]", "melting point": "205 to 209"},
      {"molecule": "CN(C)c1ccccc1/C=C/C(=O)CC(=O)/C=C/c1ccc(O)cc1", "note": "[CU495, (1E,6E)-1-(2-dimethylaminophenyl)-7-(4-hydroxyphenyl)hepta-1,6-diene-3,5-dione]", "melting point": "68 to 72"},
      {"molecule": "CN(C)c1ccc(Br)cc1/C=C/C(=O)CC(=O)/C=C/c1ccc(O)cc1", "note": "[CU534, (1E,6E)-1-(5-bromo-2-dimethylaminophenyl)-7-(4-hydroxyphenyl)hepta-1,6-diene-3,5-dione]", "melting point": "68 to 72"},
      {"molecule": "COc1cc(/C=C/C(=O)CC(=O)/C=C/c2ccco2)ccc1O", "note": "[CU015, (1E,6E)-1-(furan-2-yl)-7-(4-hydroxy-3-methoxyphenyl)hepta-1,6-diene-3,5-dione]", "melting point": "48 to 50"},
      {"molecule": "COc1cc(/C=C/C(=O)CC(=O)/C=C/c2cccs2)ccc1O", "note": "[CU016, (1E,6E)-1-(4-hydroxy-3-methoxyphenyl)-7-(thiophen-2-yl)hepta-1,6-diene-3,5-dione]", "melting point": "52 to 54"},
      {"molecule": "O=C(/C=C/c1ccc(O)cc1)CC(=O)/C=C/c1ccccc1-c1cccnc1", "note": "[CU513, (1E,6E)-1-(4-hydroxyphenyl)-7-[2-(pyridin-3-yl)phenyl]hepta-1,6-diene-3,5-dione]", "melting point": "180 to 189"},
      {"molecule": "O=C(/C=C/c1ccc(O)cc1)CC(=O)/C=C/c1cc(F)cc(F)c1", "note": "[CU468, (1E,6E)-1-(3,5-difluorophenyl)-7-(4-hydroxyphenyl)hepta-1,6-diene-3,5-dione]", "melting point": "153 to 156"},
      {"molecule": "COc1ccc(/C=C/C(=O)CC(=O)/C=C/c2cn(Cc3ccccc3)c3ccccc23)cc1O", "note": "[CU417, (1E,6E)-1-(1-benzyl-1H-indol-3-yl)-7-(3-hydroxy-4-methoxyphenyl)hepta-1,6-diene-3,5-dione]", "melting point": "194 to 199"},
      {"molecule": "COc1ccc(/C=C/C(=O)CC(=O)/C=C/c2ccc(N(C)C)cc2Cl)cc1O", "note": "[CU202, (1E,6E)-1-(2-chloro-4-dimethylaminophenyl)-7-(3-hydroxy-4-methoxyphenyl)hepta-1,6-diene-3,5-dione]", "melting point": "160 to 164"},
      {"molecule": "COc1cc(/C=C/C(=O)CC(=O)/C=C/c2ccc(N(C)C)c(OC)c2)ccc1O", "note": "[CU033, (1E,6E)-1-(4-dimethylamino-3-methoxyphenyl)-7-(4-hydroxy-3-methoxyphenyl)hepta-1,6-diene-3,5-dione]", "melting point": "68 to 75"},
      {"molecule": "COc1cc(/C=C/C(=O)CC(=O)/C=C/c2cc(OC)c(OC)c(OC)c2)ccc1O", "note": "[CU006, (1E,6E)-1-(4-hydroxy-3-methoxyphenyl)-7-(3,4,5-trimethoxyphenyl)hepta-1,6-diene-3,5-dione]", "melting point": "80 to 83"},
      {"molecule": "COc1ccc(/C=C/C(=O)CC(=O)/C=C/c2c[nH]c3cccc([N+](=O)[O-])c23)cc1O", "note": "[CU463, (1E,6E)-1-(3-hydroxy-4-methoxyphenyl)-7-(4-nitro-1H-indol-3-yl)hepta-1,6-diene-3,5-dione]", "melting point": "226 to 233"},
      {"molecule": "COc1cc(/C=C/C(=O)CC(=O)/C=C/c2ccc(O)c(Cl)c2)ccc1O", "note": "[CU007, (1E,6E)-1-(3-chloro-4-hydroxyphenyl)-7-(4-hydroxy-3-methoxyphenyl)hepta-1,6-diene-3,5-dione]", "melting point": "90 to 95"},
      {"molecule": "COc1ccc(/C=C/C(=O)CC(=O)/C=C/c2cc(Cl)ccc2Cl)cc1O", "note": "[CU185, (1E,6E)-1-(2,5-dichlorophenyl)-7-(3-hydroxy-4-methoxyphenyl)hepta-1,6-diene-3,5-dione]", "melting point": "140 to 146"},
      {"molecule": "COc1cc(/C=C/C(=O)CC(=O)/C=C/c2ccc(O)cc2)cc(OC)c1OC", "note": "[CU204, (1E,6E)-1-(4-hydroxyphenyl)-7-(3,4,5-trimethoxyphenyl)hepta-1,6-diene-3,5-dione]", "melting point": "101 to 105"},
      {"molecule": "COc1cc(/C=C/C(=O)CC(=O)/C=C/c2ccc(Cl)cc2)ccc1O", "note": "[CU020, (1E,6E)-1-(4-chlorophenyl)-7-(4-hydroxy-3-methoxyphenyl)hepta-1,6-diene-3,5-dione]", "melting point": "59 to 61"},
      {"molecule": "O=C(/C=C/c1ccc(O)cc1)CC(=O)/C=C/c1ccccc1Br", "note": "[CU486, (1E,6E)-1-(2-bromophenyl)-7-(4-hydroxyphenyl)hepta-1,6-diene-3,5-dione]", "melting point": "155 to 159"},
      {"molecule": "O=C(/C=C/c1ccc(O)cc1)CC(=O)/C=C/c1ccc(N2CCN(Cc3ccccc3)CC2)nc1", "note": "[CU332, (1E,6E)-1-[6-(4-benzylpiperazin-1-yl)pyridin-3-yl]-7-(4-hydroxyphenyl)hepta-1,6-diene-3,5-dione]", "melting point": "132 to 138"},
      {"molecule": "O=C(/C=C/c1ccc(O)cc1)CC(=O)/C=C/c1ccccc1N1CCCCC1", "note": "[CU497, (1E,6E)-1-(4-hydroxyphenyl)-7-[2-(piperidin-1-yl)phenyl]hepta-1,6-diene-3,5-dione]", "melting point": "77 to 84"},
      {"molecule": "COc1cc(/C=C/C(=O)CC(=O)/C=C/c2ccccc2O)ccc1O", "note": "[CU082, (1E,6E)-1-(4-hydroxy-3-methoxyphenyl)-7-(2-hydroxyphenyl)hepta-1,6-diene-3,5-dione]", "melting point": "77 to 83"},
      {"molecule": "O=C(/C=C/c1ccc(O)cc1)CC(=O)/C=C/c1cc(OCc2ccc(Cl)cc2Cl)ccc1[N+](=O)[O-]", "note": "[CU493, (1E,6E)-1-[5-(2,4-dichlorobenzyloxy)-2-nitrophenyl]-7-(4-hydroxyphenyl)hepta-1,6-diene-3,5-dione]", "melting point": "157 to 161"},
      {"molecule": "CCN(CC)c1ccc(/C=C/C(=O)CC(=O)/C=C/c2ccc(OC)c(O)c2)c(O)c1", "note": "[CU278, (1E,6E)-1-(4-diethylamino-2-hydroxyphenyl)-7-(3-hydroxy-4-methoxyphenyl)hepta-1,6-diene-3,5-dione]", "melting point": "101 to 108"},
      {"molecule": "CN(C)c1ccc(/C=C/C(=O)CC(=O)CCc2ccc(O)cc2)c2ccccc12", "note": "[CU518, (E)-1-(4-dimethylaminonaphthalen-1-yl)-7-(4-hydroxyphenyl)hept-1-ene-3,5-dione]", "melting point": "44 to 49"},
      {"molecule": "COc1ccc(/C=C/C(=O)CC(=O)/C=C/c2ccc(N(C)C)c(OC)c2)cc1O", "note": "[CU036, (1E,6E)-1-(4-dimethylamino-3-methoxyphenyl)-7-(3-hydroxy-4-methoxyphenyl)hepta-1,6-diene-3,5-dione]", "melting point": "65 to 70"},
      {"molecule": "O=C(/C=C/c1ccc(O)cc1)CC(=O)/C=C/c1ccc2ccccc2c1-c1ccccc1", "note": "[CU503, (1E,6E)-1-(4-hydroxyphenyl)-7-(1-phenylnaphthalen-2-yl)hepta-1,6-diene-3,5-dione]", "melting point": "218 to 222"}
    ]}
  ]
}
